Assay results: patent US20140271667A1, “Methods and Compositions for Neoadjuvant Therapy” (The Wistar Institute of Anatomy and Biology, priority 2013, published 2014)

How the values were obtained:
Format in all cases: cell-based, human
PC3 cells [1] = experiment: Matrigel-coated transwell cell invasion; details: Gamitrinib 5 μM, 17-AAG 5 μM, CCCP 12.5 μM, 2-DG 25 mM, 16 h
Protocol: (§1) Various tumor cell types were treated as indicated in each experiment, suspended in 0.1% BSA/DMEM and seeded (1.6−3.2×10^3 cells/mm2, depending on the cell type) in the upper compartment of […] pore diameter BD transwells (BD). NIH3T3 conditioned medium was placed in the lower compartment as a chemoattractant. After 6-18 h incubations at 37° C., the transwell membranes were recovered and cells on the upper side (non-migratory) were wiped off the surface. Cells on the lower side of the membrane were fixed in methanol, rinsed in water and mounted on glass slides with Vectashield medium containing DAPI (Vector Laboratories). Migrated cells on each membrane were counted by fluorescence microscopy in 5 different fields. For cell invasion assays, transwell membranes were coated with Matrigel and processed as described above.

PC3 cells [2] = experiment: Transwell cell migration; details: Gamitrinib 5 μM, 17-AAG 5 μM, CCCP 12.5 μM, 2-DG 25 mM, rapamycin 0.1 μM, 6 h
Protocol: as §1

AMPK = experiment: Western blotting, AMPK and ACC phosphorylation
Protocol: (§2) Protein lysates were prepared in RIPA buffer containing 150 mM NaCl, 1.0% Triton X-100, 0.5% sodium deoxycholate, 0.1% SDS, 50 mM Tris, pH 8.0, in the presence of EDTA-free protease inhibitor cocktail (Roche) and phosphatase inhibitor cocktail 2 and 3 (Sigma Aldrich). Equal amounts of protein lysates were separated by SDS gel electrophoresis, transferred to PVDF membranes and incubated with primary antibodies of various specificities. Protein bands were detected by chemiluminescence, as described (21).

PC3 cells [3] = experiment: Wound closure assay, tumor cells; details: Gamitrinib 5 μM, 16 and 24 h
PC3 cells [4] = experiment: Lamella dynamics in live cells (SACED stroboscopic analysis); details: Gamitrinib 5 μM
Protocol: Tumor cells growing at low confluency (3-5×10^4/well) on high optical quality 96 well μ-plates (Ibidi) were imaged with a 40× objective on a Nikon TE300 inverted time-lapse microscope equipped with a video system containing a Evolution QEi camera and a time-lapse video cassette recorder. All experiments were carried out in atmosphere-equilibrated environment at 37° C. and 5% CO2. Phase contrast images were captured at 0.5 sec intervals for 5 min (600 images=300 sec) and merged into sequence files using ImagePro Plus 7. Real time dynamics of a particular cellular region were quantified by Stroboscopic Analysis of Cell Dynamics (SACED) (55), with generation of digital steps from the first 120 sec (240 frames) of the sequence files imported into Image J software. A particular region of 16.2 μm×0.162 μm (“SACED line”) was selected in cells under analysis, duplicated and montaged in sequence to display the region over time in a stroboscopic image. […] Structures such as protruding lamellipodia and ruffles were manually labeled and the frequency of ruffles per min was calculated. Mean values were calculated from at least 15 cells from 4 separate wells. All experiments were repeated at least twice with different tumor cell types.

Rac1 and Cdc42 = experiment: Rac1 and Cdc42-GTP pull-down assays; details: serum-starved A549 cells stimulated with EGF or FBS; Gamitrinib 5 μM
Protocol: The activation of Rho family small GTPases, Rac1 or Cdc42 was examined in pull-down assays using the p21-binding domain (PBD, amino acids 70-117) of the p21-activated kinase-1 (Pak1). Briefly, a pGEX TK-Pak1 PBD cDNA (Addgene, Cat. no. #12217) was purified, transformed into BL21 E. coli competent cells (Stratagene), and expressed as recombinant GST fusion protein after induction with 1 mM IPTG for 4 h at 34° C. Cells were suspended in PBS, pH 7.2, in the presence of protease inhibitors (SIGMA), and broken by sonication in 1% Triton X-100 for 30 min at 4° C. Soluble proteins were isolated by chromatography on glutathione Sepharose 4B (GS4B, GE Healthcare), eluted in 3 consecutive steps in buffer containing 10 mM GSH, 50 mM Tris HCl, pH 8.0, and further desalted using Amicon Ultra 4/10K columns (Millipore), for a total of 3 buffer changes to PBS, pH 7.2. The protein was diluted in glycerol, quantified by absorbance at 280 nm, and stored at −80° C. until use. The activity of each batch of recombinant protein was assessed by incubating aliquots of the cell lysate with non-hydrolyzable GTPγS at 0.1 mM (maximum binding) or 1 mM GDP (negative control) in low Mg2+ buffer at 30° C. followed by pull-down (54). […]

[5] = system: p21-activated kinases, Pak-1,2; experiment: Western blotting, Pak phosphorylation; details: Gamitrinib 5 μM
Protocol: as §2

LN229 cells = experiment: ATP measurement (luciferin-luciferase); details: Gamitrinib 5-10 μM, concentration-dependent
Protocol: Intracellular ATP concentrations were measured by the luciferin-luciferase method using an ATP measuring kit (Biochain). The ATP concentration in each extract was determined in a microplate luminometer (Beckman Coulter) against standard ATP solutions used as reference.

ULK1 = experiment: Western blotting, ULK1 phosphorylation and level; details: PC3
Protocol: as §2

Question: Which tumor cell invasion (PC3 cells [1]) does the source give for Gamitrinib here?
Answer: suppressed

Question: What about the tumor cell migration (PC3 cells [2]) of the same substance?
Answer: suppressed

Question: What about the “AMPK phosphorylation during nutrient deprivation” value (AMPK; LN229, Gamitrinib 5 μM, with or without glucose) of the same substance?
Answer: increased AMPK phosphorylation

Question: What about the “AMPK and ACC phosphorylation” value (AMPK; PC3, Gamitrinib 5 μM time course, metformin 5 mM 6 h, 17-AAG 5 μM time course) of the same substance?
Answer: induced early phosphorylation

Question: What about the “tumor cell migration in wound closure assay” value (PC3 cells [3]) of the same substance?
Answer: inhibited tumor cell migration

Question: And the “ruffling frequency and retraction speed” value (PC3 cells [4]; PC3)?
Answer: profound inhibition

Question: And the cytoskeletal lamella dynamics (PC3 cells [4]; single cell time-lapse videomicroscopy)?
Answer: nearly complete loss

Question: What about the “activation of Rac1 and Cdc42 (GTP-bound)” value (Rac1 and Cdc42) of the same substance?
Answer: impaired

Question: What about the “Pak-1,2 phosphorylation on Ser199, Ser144 and Ser20” value [5] of the same substance?
Answer: inhibited the phosphorylation

Question: And the “ATP production in tumor cells” value (LN229 cells)?
Answer: inhibited ATP production

Question: And the “ULK1 phosphorylation on Ser555” value (ULK1; Gamitrinib 5 μM (within 1-2 h), metformin 5 mM 6 h, 17-AAG 5 μM)?
Answer: phosphorylation of ULK1 on Ser555

Question: What about the “ULK1 phosphorylation on Ser757” value (ULK1; Gamitrinib 5 μM, metformin 5 mM 6 h, 17-AAG 5 μM) of the same substance?
Answer: decreased phosphorylation on Ser757

Question: And the “total level of ULK1” value (ULK1; time points of the Western blot experiment)?
Answer: not affected
